The values that follow come from patent publication US20070179152A1, “Combination therapy for the treatment of neoplasms” (priority 2003, published 2007).

Structures can show the parent of a compound that is named as a salt. Where two headings read alike, the source gives them in different places.

Format in all cases: cell-based
One assay has as its system SKMEL-28 cells. Kind of assay: Anti-proliferation assay (Alamar Blue metabolism), SKMEL-28. The settings on record: Homo sapiens, SK-MEL-28; read-out: Percent inhibition of Alamar Blue Metabolism. Here is the method:
(§1) Itraconazole was obtained from […].). Stock solutions (1000×) of each compound were prepared in DMSO and stored at -20° C. Master stock plates of 2-fold serial dilutions of individual compounds were prepared in 384-well plates. Combination matrices of test compounds were generated from these master stock plates by dilution into growth media described above. […] The combination matrices were used immediately and discarded. The anti-proliferation assays were performed in 384 well plates. […] Cells were diluted in culture media such that 3,000 SKMEL cells, or 1,500 cells for all the other cell lines, were delivered in 35 μl of media into each assay well. […] Then, 4.5 μl of 10× stock solutions from the combination matrices were added to 40 μl of culture media. […] Quantification, using the LJL Analyst AD reader (LJL Biosystems), was taken in the middle of the well with high attenuation, a 100 msec read time, an excitation filter at 530 nm, and an emission filter at 575 nm. For some experiments, quantification was performed using a Wallac Victor^2 reader. Measurements were taken at the top of the well with stabilized energy lamp control; a 100 msec read time, an excitation filter at 530 nm, and an emission filter at 590 nm.
On the technique in general: Alamar Blue is a resazurin reagent that responds to reducing activity.

For the next assay, the system named is HCT116 cells. In words: Anti-proliferation assay (Alamar Blue metabolism), HCT116. The settings on record: Homo sapiens, read-out: Percent inhibition of Alamar Blue Metabolism. Here is the method: as §1
Another assay has as its system A549 cells. Kind of assay: Anti-proliferation assay (Alamar Blue metabolism), A549. Particulars: Homo sapiens, read-out: Percent inhibition of Alamar Blue Metabolism. As to the method: as §1
The test system of the next assay is DU145 cells. Kind of assay: Anti-proliferation assay (Alamar Blue metabolism), DU145. The settings on record: Homo sapiens, DU-145; read-out: Percent inhibition of Alamar Blue Metabolism. As to the method: as §1

For `CCC(C)n1ncn(-c2ccc(N3CCN(c4ccc(OCC5COC(Cn6cncn6)(c6ccc(Cl)cc6Cl)O5)cc4)CC3)cc2)c1=O` (centres unmarked) [Itraconazole, itraconazole], the inhibition (as a rule, the drop in the measured response relative to a control, in per cent) at 0.44 µM with SKMEL-28 cells was 1.5%; in the assay with HCT116 cells (HCT-116, amiodarone 0 μM, itraconazole 0.44 μM), -2.8%; in the assay with HCT116 cells (HCT-116, itraconazole 0.44 μM, bepridil 0 μM) it was -1.4%; in the assay on HCT116 cells (HCT-116, itraconazole 0.44 μM, nicardipine 0 μM), -0.5%; in the assay on A549 cells, 3.7%; with DU145 cells, -1.6%. Further, the inhibition at 0.87 µM with SKMEL-28 cells stood at 4.4%; in the assay on HCT116 cells (HCT-116, amiodarone 0 μM, itraconazole 0.87 μM) it was 1.9%; with HCT116 cells (HCT-116, itraconazole 0.87 μM, bepridil 0 μM) it was 13.3%; in the assay with HCT116 cells (HCT-116, itraconazole 0.87 μM, nicardipine 0 μM), 12.3%; in the assay on A549 cells, 11.5%; in the assay with DU145 cells it was 4.9%. Further, the inhibition at 1.7 µM was 6.6% with SKMEL-28 cells; 8.5% in the assay with HCT116 cells (HCT-116, amiodarone 0 μM, itraconazole 1.7 μM); 26.4% in the assay with HCT116 cells (HCT-116, itraconazole 1.7 μM, bepridil 0 μM); 15.4% in the assay with HCT116 cells (HCT-116, itraconazole 1.7 μM, nicardipine 0 μM); 2.8% in the assay on A549 cells; -4.2% in the assay on DU145 cells. In addition, the inhibition at 3.5 µM is 10.4% in the assay with SKMEL-28 cells; 17.5% with HCT116 cells (HCT-116, amiodarone 0 μM, itraconazole 3.5 μM); 30.3% with HCT116 cells (HCT-116, itraconazole 3.5 μM, bepridil 0 μM); 20.1% in the assay with HCT116 cells (HCT-116, itraconazole 3.5 μM, nicardipine 0 μM); 8% in the assay on A549 cells; -10.1% in the assay on DU145 cells. The inhibition at 7 µM in the assay on SKMEL-28 cells is 12.6%; with HCT116 cells (HCT-116, amiodarone 0 μM, itraconazole 7 μM), 20.4%; in the assay on HCT116 cells (HCT-116, itraconazole 7 μM, bepridil 0 μM), 33.1%; in the assay on HCT116 cells (HCT-116, itraconazole 7 μM, nicardipine 0 μM), 32.7%; in the assay with A549 cells, 6.3%; in the assay with DU145 cells it was -13%. For the same compound, the inhibition at 14 µM is 14% in the assay with SKMEL-28 cells; 19.1% in the assay with HCT116 cells (HCT-116, amiodarone 0 μM, itraconazole 14 μM); 17.8% in the assay with HCT116 cells (HCT-116, itraconazole 14 μM, bepridil 0 μM); 19.8% in the assay with HCT116 cells (HCT-116, itraconazole 14 μM, nicardipine 0 μM); 7.4% with A549 cells; -4.3% in the assay on DU145 cells. In addition, the inhibition at 28 µM in the assay on SKMEL-28 cells is 15%; in the assay with HCT116 cells (HCT-116, amiodarone 0 μM, itraconazole 28 μM), 16%; in the assay with HCT116 cells (HCT-116, itraconazole 28 μM, bepridil 0 μM), 17.2%; with HCT116 cells (HCT-116, itraconazole 28 μM, nicardipine 0 μM), 22.4%; in the assay on A549 cells, 9.7%; in the assay with DU145 cells, -4.6%. Also, the inhibition at […] was -0.7% in the assay on HCT116 cells (HCT-116, amiodarone 0 μM, itraconazole […]); 5.8% with HCT116 cells (HCT-116, itraconazole […], bepridil 0 μM); 3% in the assay on HCT116 cells (HCT-116, itraconazole […], nicardipine 0 μM).
`CC(C)COCC(CN(Cc1ccccc1)c1ccccc1)N1CCCC1` (stereo not drawn) [Bepridil, beta-((2-methylpropoxy)methyl)-N-phenyl-N-(phenylmethyl)-1-pyrrolidineethanamine]: the inhibition at 1.5 µM with HCT116 cells (HCT-116, itraconazole 0 μM, bepridil 1.5 μM) came out at 5.1%. Besides, in the assay with HCT116 cells (HCT-116, itraconazole 0 μM, bepridil 3 μM), the inhibition at 3 µM worked out at 17.4%. Also, in the assay on HCT116 cells (HCT-116, itraconazole 0 μM, bepridil 6.1 μM), the inhibition at 6.1 µM is 54%. For the same compound, in the assay on HCT116 cells (HCT-116, itraconazole 0 μM, bepridil 12 μM), the inhibition at 12 µM turned out to be 33.2%. The inhibition at 24 µM in the assay on HCT116 cells (HCT-116, itraconazole 0 μM, bepridil 24 μM) amounted to 79%. Moreover, in the assay with HCT116 cells (HCT-116, itraconazole 0 μM, bepridil 48 μM), the inhibition at 48 µM amounted to 96.4%.
For the compound `COC(=O)C1=C(C)NC(C)=C(C(=O)OCCN(C)Cc2ccccc2)C1c1cccc([N+](=O)[O-])c1` (centres unmarked) [Nicardipine, 2-(benzyl-methylamino)ethyl methyl 1,4-dihydro-2,6-dimethyl-4-(m-nitrophenyl)-3,5-pyridinedicarboxylate monohydrochloride], the inhibition at 0.3 µM in the assay with HCT116 cells (HCT-116, itraconazole 0 μM, nicardipine 0.3 μM) was determined as 2.6%. For the same compound, in the assay with HCT116 cells (HCT-116, itraconazole 0 μM, nicardipine 0.61 μM), the inhibition at 0.61 µM stood at 1.4%. Besides, in the assay on HCT116 cells (HCT-116, itraconazole 0 μM, nicardipine 1.2 μM), the inhibition at 1.2 µM was found to be 2.5%. Also, the inhibition at 2.4 µM in the assay on HCT116 cells (HCT-116, itraconazole 0 μM, nicardipine 2.4 μM) stood at 5.2%. Besides, the inhibition at 4.8 µM in the assay with HCT116 cells (HCT-116, itraconazole 0 μM, nicardipine 4.8 μM) is 7.5%. Moreover, in the assay on HCT116 cells (HCT-116, itraconazole 0 μM, nicardipine 9.7 μM), the inhibition at 9.7 µM is 9.7%. Moreover, the inhibition at 19 µM in the assay on HCT116 cells (HCT-116, itraconazole 0 μM, nicardipine 19 μM) was found to be 25.2%. The inhibition at 39 µM with HCT116 cells (HCT-116, itraconazole 0 μM, nicardipine 39 μM) is 81.7%.
